{
  "source": "patent US8569509B2",
  "about": "“Thiazole-4-carboxylic acid esters and thioesters as plant protection agents” (priority 2008, dated 2013)",
  "key": {"[1]": {"experiment": "log P determination (HPLC, calibration with unbranched alkan-2-ones)", "type": "physicochemical", "method": "The calibration is carried out using unbranched alkan-2-ones (having 3 to 16 carbon atoms) with known log P values (determination of the log P values by the retention times using linear interpolation between two successive alkanones). The lambda-maX values were determined in the maxima of the chromatographic signals using the UV spectra from 200 nm to 400 nm."}, "Plasmopara viticola [2]": {"system": "Plasmopara viticola", "experiment": "Plasmopara test (grapevine)/protective", "type": "in vivo", "conditions": "grapevine plants, protective, application rate 1 ppm, evaluation 6 days after inoculation", "method": "Plasmopara Test (Grapevine)/Protective\nAfter the spray coating has dried on, the plants are inoculated with an aqueous spore suspension of Plasmopara viticola and then remain in an incubation cabin at about 20° C. and 100% relative atmospheric humidity for 1 day. The plants are then placed in a greenhouse at about 21° C. and about 90% atmospheric humidity for 4 days. The plants are then moistened and placed in an incubation cabin for 1 day.\nEvaluation is carried out 6 days after the inoculation."}, "Plasmopara viticola [3]": {"system": "Plasmopara viticola", "experiment": "Plasmopara test (grapevine)/curative", "type": "in vivo", "conditions": "grapevine plants, curative, application rate 100 ppm, evaluation 6 days after inoculation"}, "Phytophthora infestans": {"system": "Phytophthora infestans", "type": "in vivo", "conditions": "tomato plants, protective, application rate 10 ppm, evaluation 3 days after inoculation"}, "[4]": {"conditions": "reversed-phase (C18) HPLC column, * LC-MS determination in the acidic range, pH 2.7, 0.1% aqueous formic acid and acetonitrile, linear gradient 10% to 95% acetonitrile, read-out: log p"}, "[5]": {"conditions": "pH 2.7, read-out: log P (pH 2.7)"}, "[6]": {"conditions": "* LC-MS determination in the acidic range at pH 2.7, mobile phases 0.1% aqueous formic acid and acetonitrile (0.1% formic acid), linear gradient 10% to 95% acetonitrile, reversed-phase C 18 HPLC"}, "[7]": {"conditions": "* LC-MS determination in the acidic range at pH 2.7, 0.1% aqueous formic acid and acetonitrile, linear gradient 10% to 95% acetonitrile, reversed-phase C 18"}, "[8]": {"conditions": "* LC-MS determination in the acidic range, pH 2.7, 0.1% aqueous formic acid and acetonitrile, linear gradient 10% to 95% acetonitrile"}, "[9]": {"conditions": "reversed-phase C18 HPLC column, * LC-MS determination in the acidic range at pH 2.7, mobile phases 0.1% aqueous formic acid and acetonitrile (0.1% formic acid), linear gradient 10% to 95% acetonitrile, reversed-phase C 18 HPLC, read-out: log p"}},
  "note": "Read-outs that look alike come from different tables or passages of the source.",
  "data": [
    {"molecule": "Cc1cc(C(F)(F)F)nn1CC(=O)N1CCC(c2nc(C(=O)OC3CCCc4ccccc43)cs2)CC1", "note": "(stereo not drawn) [Ex. 6]", "values": [
      {"measurement": "chromatographic logP", "setting": "[1]; reversed-phase (C18) HPLC column, ** determination in the acidic range, pH 2.3, 0.1% aqueous phosphoric acid and acetonitrile, linear gradient 10% to 95% acetonitrile, read-out: log p", "result": 4.01},
      {"measurement": "Efficacy in %", "setting": "Plasmopara viticola [2]", "result": 91, "unit": "%"},
      {"measurement": "Efficacy in %", "setting": "Plasmopara viticola [3]", "result": 84, "unit": "%"}
    ]},
    {"molecule": "Cc1cc(C(F)(F)F)nn1CC(=O)N1CCC(c2nc(C(=O)N(C)C3CCCc4ccccc43)cs2)CC1", "note": "(stereo not drawn) [drawing 26, reference compound]", "values": [
      {"measurement": "Efficacy in %", "setting": "Plasmopara viticola [2]", "result": 72, "unit": "%"}
    ]},
    {"molecule": "Cc1cc(C(F)(F)F)nn1CC(=O)N1CCC(c2nc(C(=O)OCc3ccccc3Cl)cs2)CC1", "note": "[Ex. 23]", "values": [
      {"measurement": "chromatographic logP", "setting": "[1]; [4]", "result": 3.7},
      {"measurement": "Efficacy in %", "setting": "Phytophthora infestans", "result": 94, "unit": "%"}
    ]},
    {"molecule": "Cc1cc(C(F)(F)F)nn1CC(=O)N1CCC(c2nc(C(=O)N(C)C3CCCc4ccccc43)cs2)CC1", "note": "(stereo not drawn) [drawing 28, reference compound]", "values": [
      {"measurement": "Efficacy in %", "setting": "Plasmopara viticola [3]", "result": 37, "unit": "%"}
    ]},
    {"molecule": "Cc1cc(C(F)(F)F)nn1CC(=O)N1CCC(c2nc(C(=O)NCc3ccccc3Cl)cs2)CC1", "note": "[reference compound]", "values": [
      {"measurement": "Efficacy in %", "setting": "Phytophthora infestans", "result": 65, "unit": "%"}
    ]},
    {"molecule": "Cc1cc(C(F)(F)F)nn1CC(=O)N1CCC(c2nc(C(=O)OC3CCCCC3)cs2)CC1", "note": "[compound 220, Cyclohexyl 2-(1-{[5-methyl-3-(trifluoromethyl)-1H-pyrazol-1-yl]acetyl}piperidin-4-yl)-1,3-thiazole-4-carboxylate]", "values": [
      {"measurement": "chromatographic logP", "setting": "[1]; [5]", "result": 3.74},
      {"measurement": "chromatographic logP", "setting": "[1]; reversed-phase C18 HPLC column, * LC-MS determination in the acidic range at pH 2.7, 0.1% aqueous formic acid and acetonitrile, linear gradient 10% to 95% acetonitrile, reversed-phase C 18, read-out: log p", "result": 3.74}
    ]},
    {"molecule": "Cc1cc(C(F)(F)F)nn1CC(=O)N1CCCC(c2nc(C(=O)OCc3ccncc3)cs2)C1", "note": "(stereo not drawn) [compound 292]", "values": [
      {"measurement": "log p", "setting": "[1]; * LC-MS determination in the acidic range, pH 2.7, 0.1% aqueous formic acid / acetonitrile gradient", "result": "1.51*"}
    ]},
    {"molecule": "Cc1cc(C)n(C(C)(C)C(=O)N2CCC(c3nc(C(=O)OCCN(C)C)cs3)CC2)n1", "note": "[compound 803]", "values": [
      {"measurement": "log p", "setting": "[1]; [6]", "result": "1.03*"}
    ]},
    {"molecule": "COc1cccc(OC)c1OC(=O)c1csc(C2CCN(C(=O)Cn3nc(C(F)(F)F)cc3C)CC2)n1", "note": "[compound 816]", "values": [
      {"measurement": "log p", "setting": "[1]; [6]", "result": "3.12*"}
    ]},
    {"molecule": "Cc1cc(C(F)(F)F)nn1CC(=O)N1CCC(c2nc(C(=O)SCc3ccc(F)cc3)cs2)CC1", "note": "[compound 27, S-(4-Fluorobenzyl) 2-(1-{[5-methyl-3-(trifluoromethyl)-1H-pyrazol-1-yl]acetyl}piperidin-4-yl)-1,3-thiazole-4-carbothioate]", "values": [
      {"measurement": "chromatographic logP", "setting": "[1]; [5]", "result": 4},
      {"measurement": "chromatographic logP", "setting": "[1]; [4]", "result": 4}
    ]},
    {"molecule": "CCOC(=O)c1csc(C2CCCN(C(=O)Cn3nc(C(F)(F)F)cc3C)C2)n1", "note": "(stereo not drawn) [IV-3, Ethyl 2-(1-{[5-methyl-3-(trifluoromethyl)-1H-pyrazol-1-yl]acetyl}piperidin-3-yl)-1,3-thiazole-4-carboxylate]", "values": [
      {"measurement": "chromatographic logP", "setting": "[1]; [5]", "result": 2.78}
    ]},
    {"molecule": "Cc1c(Cl)c(C(F)(F)F)nn1CC(=O)N1CCC(c2nc(C(=O)OCCc3ccc(F)cc3)cs2)CC1", "note": "[compound 186]", "values": [
      {"measurement": "log p", "setting": "[1]; [7]", "result": "3.94*"}
    ]},
    {"molecule": "CCOC(=O)Cn1nc(C(C)(C)C)cc1C(F)(F)F", "note": "[XVI-1, Ethyl [3-tert-butyl-5-(trifluoromethyl)-1H-pyrazol-1-yl]acetate]", "values": [
      {"measurement": "chromatographic logP", "setting": "[1]; [5]", "result": 3.89}
    ]},
    {"molecule": "O=C(O)c1csc(C2CCN(C(=O)Cn3ccc(C(F)(F)F)n3)CC2)n1", "note": "[III-2, 2-(1-{[3-(Trifluoromethyl)-1H-pyrazol-1-yl]acetyl}piperidin-4-yl)-1,3-thiazole-4-carboxylic acid]", "values": [
      {"measurement": "chromatographic logP", "setting": "[1]; [5]", "result": 1.65}
    ]},
    {"molecule": "O=C(OCc1ccncc1)c1csc(C2CCN(C(=O)Cn3ccc(C(F)(F)F)n3)CC2)n1", "note": "[compound 142]", "values": [
      {"measurement": "log p", "setting": "[1]; [7]", "result": "1.32*"}
    ]},
    {"molecule": "CC(C)(C)c1cc(C(F)(F)C(F)(F)F)n(CC(=O)N2CCC(c3nc(C(=O)OCC4CCCCC4)cs3)CC2)n1", "note": "[compound 849]", "values": [
      {"measurement": "log p", "setting": "[1]; [6]", "result": "5.08*"}
    ]},
    {"molecule": "Cc1cc(C(F)(F)F)nn1CC(=O)N1CCC(c2nc(C(=O)OCc3c(Cl)cccc3Cl)cs2)CC1", "note": "[compound 22]", "values": [
      {"measurement": "log p", "setting": "[1]; [8]", "result": "3.94*"}
    ]},
    {"molecule": "Cc1c(Cl)c(C(F)(F)F)nn1CC(=O)N1CCC(c2nc(C(=O)Oc3ccc(F)cc3)cs2)CC1", "note": "[compound 188]", "values": [
      {"measurement": "log p", "setting": "[1]; [7]", "result": "3.63*"}
    ]},
    {"molecule": "O=C(OC1CCCCC1)c1csc(C2CCN(C(=O)Cn3nc(C(F)(F)F)cc3C(F)(F)F)CC2)n1", "note": "[compound 772, Cyclohexyl 2-(1-{[3,5-bis(trifluoromethyl)-1H-pyrazol-1-yl]acetyl}piperidin-4-yl)-1,3-thiazole-4-carboxylate]", "values": [
      {"measurement": "chromatographic logP", "setting": "[1]; [5]", "result": 4.39},
      {"measurement": "chromatographic logP", "setting": "[1]; [9]", "result": 4.39}
    ]},
    {"molecule": "Cc1cc(C(F)(F)F)nn1CC(=O)N1CCC(c2nc(C(=O)SC3CCCCC3)cs2)CC1", "note": "[compound 76, S-Cyclohexyl 2-(1-{[5-methyl-3-(trifluoromethyl)-1H-pyrazol-1-yl]acetyl}piperidin-4-yl)-1,3-thiazole-4-carbothioate]", "values": [
      {"measurement": "chromatographic logP", "setting": "[1]; [5]", "result": 4.51},
      {"measurement": "chromatographic logP", "setting": "[1]; [4]", "result": 4.51}
    ]},
    {"molecule": "Cc1cc(C(F)(F)F)nn1CC(=O)N1CCC(c2nc(C(=O)OCc3ccccc3)cs2)CC1", "note": "[compound 15]", "values": [
      {"measurement": "log p", "setting": "[1]; [8]", "result": "3.37*"}
    ]},
    {"molecule": "Cc1cc(C(F)(F)F)nn1CC(=O)N1CCC(c2nc(C(=O)OCc3ccc(OC(F)(F)F)cc3)cs2)CC1", "note": "[compound 819]", "values": [
      {"measurement": "log p", "setting": "[1]; [6]", "result": "3.99*"}
    ]},
    {"molecule": "Cc1cc(C(F)(F)F)nn1CC(=O)N1CCC(c2nc(C(=O)Oc3ccc(F)cc3)cs2)CC1", "note": "[compound 45]", "values": [
      {"measurement": "log p", "setting": "[1]; [8]", "result": "3.26*"}
    ]},
    {"molecule": "CC(C)(C)CCOC(=O)c1csc(C2CCN(C(=O)Cn3ccc(C(F)(F)F)n3)CC2)n1", "note": "[compound 767, 3,3-Dimethylbutyl 2-(1-{[3-(trifluoromethyl)-1H-pyrazol-1-yl]acetyl}piperidin-4-yl)-1,3-thiazole-4-carboxylate]", "values": [
      {"measurement": "chromatographic logP", "setting": "[1]; [5]", "result": 3.82},
      {"measurement": "chromatographic logP", "setting": "[1]; reversed-phase (C18) HPLC column, * LC-MS determination in the acidic range at pH 2.7, 0.1% aqueous formic acid and acetonitrile, linear gradient 10% to 95% acetonitrile, read-out: log p", "result": 3.82}
    ]},
    {"molecule": "O=C(Oc1cccc2ccccc12)c1csc(C2CCN(C(=O)Cn3nc(C(F)(F)F)cc3C(F)(F)F)CC2)n1", "note": "[compound 771, 1-Naphthyl 2-(1-{[3,5-bis(trifluoromethyl)-1H-pyrazol-1-yl]acetyl}piperidin-4-yl)-1,3-thiazole-4-carboxylate]", "values": [
      {"measurement": "chromatographic logP", "setting": "[1]; [5]", "result": 4.35},
      {"measurement": "chromatographic logP", "setting": "[1]; [9]", "result": 4.35}
    ]},
    {"molecule": "Cc1cc(C(F)(F)F)nn1CC(=O)N1CCC(c2nc(C(=O)OC(c3ccccc3)C3CC3)cs2)CC1", "note": "(stereo not drawn) [compound 815]", "values": [
      {"measurement": "log p", "setting": "[1]; [6]", "result": "3.87*"}
    ]},
    {"molecule": "Cc1cc(C(F)(F)F)nn1CC(=O)N1CCC(c2nc(C(=O)OC3(C#N)CCCCC3)cs2)CC1", "note": "[compound 827]", "values": [
      {"measurement": "log p", "setting": "[1]; [6]", "result": "3.33*"}
    ]}
  ]
}
